# Tested on: inflammation induced by methyl nicotinate, inner part of the upper arm
# Assay: Anti-inflammatory effect test (anti-inflammation assay), chromameter "a" value
# Format: in vivo, human
# Protocol: The anti-inflammatory effect of the natural cell control carrier comprising 3:1 (wt/wt) water-soluble chitosan and elecampane extract according to the present invention was tested as follows. Twenty healthy male and female subjects with no experience of drug hypersensitivity or drug side effect were selected. Methyl nicotinate was used as an inflammation-inducing material. […] Firstly, the initial “a” value of the inner part of the upper arm was determined with a chromameter (Minolta, CR-300). Then, 1.0% aqueous solution of said composition and 0.1% indometacin aqueous solution were closely patched at the test part for 4 hr. After removing the patch, the test part was washed with pure water. After waiting for 1 hr for the temporary inflammation reaction to disappear, “a” value was measured again with the chromameter. After dropping 80 μL of methyl nicotinate diluted to 3 mM with pure water in a filter paper disk with 1 cm of diameter, it was applied to each test part for 1-2 min. After removing the filter paper disk, each test part was washed sufficiently with pure water. After 30 min, “a” value was measured with the chromameter. The anti-inflammatory effect of the natural cell control carrier according to the present invention, indometacin and methyl nicotinate was calculated from the “a” values.
structure (smiles),measurement,setting,value
COc1ccc2c(c1)c(CC(=O)O)c(C)n2C(=O)c1ccc(Cl)cc1 [indometacin],Anti-Inflammatory Effect (%),"calculated from ""a"" values, 1.0% carrier or 0.1% indometacin aqueous solution",41.14%
same,"""a"" Value (n = 20)","chromameter, 30 min after 3 mM methyl nicotinate, 4 hr patch pre-treatment (1.0% carrier or 0.1% indometacin aqueous solution)",6.38

# — patent US6521268B2, “Antibacterial and anti-inflammatory compositions with Inula helenium L. extract and water soluble chitosan” (Jakwang Co., Ltd., priority 2001, dated 2003)
